Results on 10 compounds are retold here after patent US20200361914A1, “SUBSTITUTED BENZENE AND 6,5-FUSED BICYCLIC HETEROARYL COMPOUNDS” (Epizyme, Inc., priority 2014, published 2020).

Assay [1] concerns H3K27 trimethylation in WSU-DLCL2 cells. The assay can be described thus: WSU-DLCL2 methylation assay (H3K27me3 ELISA). It is filed as cell-based, Human. To be noted: H3K27me3 normalised to total H3, read-out: EZH2 WSU ELISA IC50. An excerpt:
WSU-DLCL2 Methylation Assay
WSU-DLCL2 suspension cells are purchased from DSMZ (German Collection of Microorganisms and Cell Cultures, Braunschweig, Germany). RPMI/Glutamax Medium, Penicillin-Streptomycin, Heat Inactivated Fetal Bovine Serum, and D-PBS were purchased from Life Technologies, Grand Island, N.Y., USA. Extraction Buffer and Neutralization Buffer (5×) were purchased from Active Motif, Carlsbad, Calif., USA. Rabbit anti-Histone H3 antibody is purchased from Abcam, Cambridge, Mass., USA. Rabbit anti-H3K27me3 and HRP-conjugated anti-rabbit-IgG are purchased from Cell Signaling Technology, Danvers, Mass., USA. TMB “Super Sensitive” substrate is sourced from BioFX Laboratories, Owings Mills, Md., USA. IgG-free Bovine Serum Albumin is purchased from Jackson ImmunoResearch, West Grove, Pa., USA. PBS with Tween (10×PBST) was purchased from KPL, Gaithersburg, Md., USA. Sulfuric Acid is purchased from Ricca Chemical, Arlington, Tex., USA. Immulon ELISA plates were purchased from Thermo, Rochester, N.Y., USA. V-bottom cell culture plates are purchased from Corning Inc., Corning, N.Y., USA.V-bottom polypropylene plates were purchased from Greiner Bio-One, Monroe, N.C., USA.
WSU-DLCL2 suspension cells are maintained in growth medium (RPMI 1640 supplemented with 10% v/v heat inactivated fetal bovine serum and 100 units/mL penicillin-streptomycin) and cultured at 37° C. under 5% CO2. Under assay conditions, cells are incubated in Assay Medium (RPMI 1640 supplemented with 20% v/v heat inactivated fetal bovine serum and 100 units/mL penicillin-streptomycin) at 37° C. under 5% CO2 on a plate shaker.
WSU-DLCL2 cells are seeded in assay medium at a concentration of 50,000 cells per mL to a 96-well V-bottom cell culture plate with 200 μL per well. Compound (1 μL) from 96 well source plates is added directly to V-bottom cell plate. Plates are incubated on a titer-plate shaker at 37° C., 5% CO2 for 96 hours. After four days of incubation, plates are spun at 241×g for five minutes and medium was aspirated gently from each well of cell plate without disturbing cell pellet. Pellet is resuspended in 200 μL DPBS and plates are spun again at 241×g for five minutes. The supernatant is aspirated and cold (4° C.) Extraction buffer (100 μL) is added per well. Plates are incubated at 4° C. on orbital shaker for two hours. Plates are spun at 3427×g x 10 minutes. Supernatant (80 μL per well) is transferred to its respective well in 96 well V-bottom polypropylene plate. Neutralization Buffer 5×(20 μL per well) is added to V-bottom polypropylene plate containing supernatant. V-bottom polypropylene plates containing crude histone preparation (CHP) are incubated on orbital shaker x five minutes. Crude Histone Preparations are added (2 μL per well) to each respective well into duplicate 96 well ELISA plates containing 100 μL Coating Buffer (1×PBS+BSA 0.05% w/v). Plates are sealed and incubated overnight at 4° C. The following day, plates were washed three times with 300 μL per well 1×PBST. Wells are blocked for two hours with 300 μL per well ELISA Diluent ((PBS (1×) BSA (2% w/v) and Tween20 (0.05% v/v)). Plates are washed three times with 1×PBST. For the Histone H3 detection plate, 100 μL per well are added of anti-Histone-H3 antibody (Abcam, ab1791) diluted 1:10,000 in ELISA Diluent. For H3K27 trimethylation detection plate, 100 μL per well are added of anti-H3K27me3 diluted 1:2000 in ELISA diluent. Plates are incubated for 90 minutes at room temperature. Plates are washed three times with 300 μL 1×PBST per well. For Histone H3 detection, 100 μL of HRP-conjugated anti-rabbit IgG antibody diluted to 1:6000 in ELISA diluent is added per well. For H3K27me3 detection, 100 μL of HRP conjugated anti-rabbit IgG antibody diluted to 1:4000 in ELISA diluent is added per well. Plates are incubated at room temperature for 90 minutes. Plates are washed four times with 1×PBST 300 μL per well. TMB substrate 100 μL is added per well. […]
(In general: ELISA stands for enzyme-linked immunosorbent assay.)

Assay [2] deals with Y641 mutant PRC2 enzyme (EZH2 Y641) (Homo sapiens, UniProt Q15910, Y641F). Description: PRC2 enzyme assay on peptide substrate, Y641 mutant EZH2.
Text: (§1) S-adenosylmethionine (SAM), S-adenosylhomocyteine (SAH), bicine, KCl, Tween20, dimethylsulfoxide (DMSO) and bovine skin gelatin (BSG) can be purchased from Sigma-Aldrich at the highest level of purity possible. Dithiothreitol (DTT) was purchased from EMD. ^3H-SAM can be purchased from American Radiolabeled Chemicals with a specific activity of 80 C1/mmol. 384-well streptavidin Flashplates can be purchased from PerkinElmer.
(§2) Recombinant PRC2 Enzymes. Human PRC2 enzymes are purified as 4-component enzyme complexes co-expressed in Spodoptera frugiperda (sf9) cells using a baculovirus expression system. […] The EED subunit contains an N-terminal FLAG tag that is used to purify the entire 4-component complex from sf9 cell lysates. The purity of the complexes meets or exceeds 95% as determined by SDS-PAGE and Agilent Bioanalyzer analysis.
(§3) General Procedure for PRC2 Enzyme Assays on Peptide Substrates. The assays are all performed in a buffer consisting of 20 mM bicine (pH=7.6), 0.5 mM DTT, 0.005% BSG and 0.002% Tween20, prepared on the day of use. […] DMSO (1 μL) is added to columns 11, 12, 23, 24, rows A-H for the maximum signal control, and SAH, a known product and inhibitor of PRC2 (1 μL) is added to columns 11, 12, 23, 24, rows I-P for the minimum signal control. A cocktail (40 μL) containing the wild-type PRC2 enzyme and H3K27me0 peptide or any of the Y641 mutant enzymes and H3K27me2 peptide is added by Multidrop Combi (Thermo). The compounds are allowed to incubate with PRC2 for 30 min at 25° C., then a cocktail (10 μL) containing a mixture of non-radioactive and ^3H-SAM is added to initiate the reaction (final volume=51 μL). […] The assays are stopped by the addition of non-radioactive SAM (10 μL) to a final concentration of 600 μM, which dilutes the ^3H-SAM to a level where its incorporation into the peptide substrate is no longer detectable. 50 μL of the reaction in the 384-well polypropylene plate is then transferred to a 384-well Flashplate and the biotinylated peptides are allowed to bind to the streptavidin surface for at least 1h before being washed three times with 0.1% Tween20 in a Biotek ELx405 plate washer. The plates are then read in a PerkinElmer TopCount platereader to measure the quantity of ^3H-labeled peptide bound to the Flashplate surface, measured as disintegrations per minute (dpm) or alternatively, referred to as counts per minute (cpm).
(§4) Where dpm=disintegrations per minute, cmpd=signal in assay well, and min and max are the respective minimum and maximum signal controls.
(§5) Where top and bottom are the normally allowed to float, but may be fixed at 100 or 0 respectively in a 3-parameter fit. The Hill Coefficient normally allowed to float but may also be fixed at 1 in a 3-parameter fit. Y is the % inhibition and X is the compound concentration.
Assay [3] addresses wild-type PRC2 enzyme (EZH2 WT) (Homo sapiens, UniProt Q15910). The assay can be described thus: PRC2 enzyme assay on peptide substrate, wild-type EZH2.
Text: as §1, §2, §3, §4, §5
The mark [4] stands for this setting: Homo sapiens, WSUDLCL2, 96 h, 96 hours incubation.
Setting [5] is: Homo sapiens, WSUDLCL2, 96 hours incubation.

By IC50 is commonly meant the concentration needed to halve the response being measured.

The structures appear in SMILES notation. Where two headings read alike, the source gives them in different places. Where only a bound is given, the exact number is not on record here.

wild-type PRC2 enzyme (EZH2 WT), sequence (Q15910 whole entry): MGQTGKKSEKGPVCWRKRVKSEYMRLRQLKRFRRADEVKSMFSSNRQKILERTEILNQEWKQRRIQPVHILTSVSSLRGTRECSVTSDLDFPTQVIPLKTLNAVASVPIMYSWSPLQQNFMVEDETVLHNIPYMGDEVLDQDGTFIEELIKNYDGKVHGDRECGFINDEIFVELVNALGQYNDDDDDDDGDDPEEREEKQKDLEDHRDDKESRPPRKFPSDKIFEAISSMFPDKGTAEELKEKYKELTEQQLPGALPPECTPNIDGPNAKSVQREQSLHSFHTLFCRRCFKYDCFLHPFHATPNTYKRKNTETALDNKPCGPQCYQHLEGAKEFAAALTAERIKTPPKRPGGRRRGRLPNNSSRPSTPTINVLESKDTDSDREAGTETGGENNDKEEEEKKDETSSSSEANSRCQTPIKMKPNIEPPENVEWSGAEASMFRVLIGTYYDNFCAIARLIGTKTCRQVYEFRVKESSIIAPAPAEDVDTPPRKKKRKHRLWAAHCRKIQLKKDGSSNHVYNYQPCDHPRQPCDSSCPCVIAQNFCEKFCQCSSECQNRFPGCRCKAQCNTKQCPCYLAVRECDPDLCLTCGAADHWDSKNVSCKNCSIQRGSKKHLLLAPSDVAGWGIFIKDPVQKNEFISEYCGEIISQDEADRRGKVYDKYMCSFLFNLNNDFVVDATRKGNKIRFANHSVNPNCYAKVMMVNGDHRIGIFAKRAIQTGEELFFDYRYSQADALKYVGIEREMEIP
wild-type PRC2 enzyme (EZH2 WT), sequence (O75530 whole entry partner): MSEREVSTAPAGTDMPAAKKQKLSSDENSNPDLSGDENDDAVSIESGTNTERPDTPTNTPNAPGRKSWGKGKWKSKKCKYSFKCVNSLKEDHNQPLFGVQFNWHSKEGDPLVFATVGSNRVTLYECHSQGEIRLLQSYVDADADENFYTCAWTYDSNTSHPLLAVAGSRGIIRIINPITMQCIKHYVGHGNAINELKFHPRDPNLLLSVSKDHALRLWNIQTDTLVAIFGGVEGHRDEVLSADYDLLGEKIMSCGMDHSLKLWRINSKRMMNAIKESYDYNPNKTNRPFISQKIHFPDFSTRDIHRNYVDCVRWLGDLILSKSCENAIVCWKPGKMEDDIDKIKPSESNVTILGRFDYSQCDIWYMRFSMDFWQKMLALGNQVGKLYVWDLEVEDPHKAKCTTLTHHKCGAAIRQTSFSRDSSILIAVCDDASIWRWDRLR
wild-type PRC2 enzyme (EZH2 WT), sequence (Q15022 whole entry partner): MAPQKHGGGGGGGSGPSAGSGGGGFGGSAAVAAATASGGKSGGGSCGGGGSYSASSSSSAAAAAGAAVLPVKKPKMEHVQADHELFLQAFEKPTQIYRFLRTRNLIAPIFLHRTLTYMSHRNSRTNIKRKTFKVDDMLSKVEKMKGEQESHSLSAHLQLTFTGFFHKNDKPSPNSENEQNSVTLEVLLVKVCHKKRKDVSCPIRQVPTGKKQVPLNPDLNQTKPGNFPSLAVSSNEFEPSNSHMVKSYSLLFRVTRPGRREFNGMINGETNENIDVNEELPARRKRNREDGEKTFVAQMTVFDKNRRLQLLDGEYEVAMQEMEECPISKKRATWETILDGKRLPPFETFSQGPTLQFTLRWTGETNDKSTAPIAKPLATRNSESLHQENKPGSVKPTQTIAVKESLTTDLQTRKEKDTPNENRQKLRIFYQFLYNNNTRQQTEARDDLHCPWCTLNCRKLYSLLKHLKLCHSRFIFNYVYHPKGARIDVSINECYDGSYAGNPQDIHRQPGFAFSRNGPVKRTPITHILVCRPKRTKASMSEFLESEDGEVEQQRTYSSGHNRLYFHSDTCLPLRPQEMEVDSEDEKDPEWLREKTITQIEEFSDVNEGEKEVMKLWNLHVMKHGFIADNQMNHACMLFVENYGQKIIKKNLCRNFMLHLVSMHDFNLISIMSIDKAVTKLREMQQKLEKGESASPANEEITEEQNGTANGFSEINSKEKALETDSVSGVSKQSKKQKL
wild-type PRC2 enzyme (EZH2 WT), sequence (Q09028 whole entry partner): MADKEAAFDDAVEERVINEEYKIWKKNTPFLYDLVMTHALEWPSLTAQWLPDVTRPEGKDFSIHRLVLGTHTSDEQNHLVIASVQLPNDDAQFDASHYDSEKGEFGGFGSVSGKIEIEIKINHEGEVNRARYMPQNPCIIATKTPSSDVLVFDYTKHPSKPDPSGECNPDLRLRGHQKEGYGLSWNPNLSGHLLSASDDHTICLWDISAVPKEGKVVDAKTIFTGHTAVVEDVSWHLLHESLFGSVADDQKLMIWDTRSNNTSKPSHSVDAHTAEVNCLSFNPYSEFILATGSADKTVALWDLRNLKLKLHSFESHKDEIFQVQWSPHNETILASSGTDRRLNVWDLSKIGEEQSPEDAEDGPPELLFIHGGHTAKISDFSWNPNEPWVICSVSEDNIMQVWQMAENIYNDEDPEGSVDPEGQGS
Y641 mutant PRC2 enzyme (EZH2 Y641), sequence (Q15910 whole entry Y641F): as the sequence (Q15910 whole entry) above, with Y641F counted along it
Y641 mutant PRC2 enzyme (EZH2 Y641), sequence (O75530 whole entry partner): as the sequence (O75530 whole entry partner) above
Y641 mutant PRC2 enzyme (EZH2 Y641), sequence (Q15022 whole entry partner): as the sequence (Q15022 whole entry partner) above
Y641 mutant PRC2 enzyme (EZH2 Y641), sequence (Q09028 whole entry partner): as the sequence (Q09028 whole entry partner) above

For `Cc1cc(C)c(CNC(=O)c2c(C)n(C(C)C3CCOCC3)c3ccccc23)c(=O)[nH]1` (racemic) [compound 19, N-((4,6-dimethyl-2-oxo-1,2-dihydropyridin-3-yl)methyl)-2-methyl-1-(1-(tetrahydro-2H-pyran-4-yl)ethyl)-1H-indole-3-carboxamide], the IC50 in assay [1] (setting [4]) is 1 to 10 µM.
Still for that read-out and setting: the figure for `COc1cc(C)[nH]c(=O)c1CNC(=O)c1c(C)n(C(C)C2CCOCC2)c2ccccc12` (racemic) [compound 24, N-((4-methoxy-6-methyl-2-oxo-1,2-dihydropyridin-3-yl)methyl)-2-methyl-1-(1-(tetrahydro-2H-pyran-4-yl)ethyl)-1H-indole-3-carboxamide] is 1 to 10 µM.
Take `COc1cc(C)[nH]c(=O)c1CNC(=O)c1c(C)n(C(C)C2CCOCC2)c2ccccc12` (single isomer, unassigned) [24a, N-((4-methoxy-6-methyl-2-oxo-1,2-dihydropyridin-3-yl)methyl)-2-methyl-1-(1-(tetrahydro-2H-pyran-4-yl)ethyl)-1H-indole-3-carboxamide]: the IC50 in assay [1] (96 hours incubation) lay within 10 to 50 µM.
Same read-out and setting: the figure for `COc1cc(C)[nH]c(=O)c1CNC(=O)c1c(C)n(C(C)C2CCOCC2)c2ccccc12` (single isomer, unassigned) [24b, N-((4-methoxy-6-methyl-2-oxo-1,2-dihydropyridin-3-yl)methyl)-2-methyl-1-(1-(tetrahydro-2H-pyran-4-yl)ethyl)-1H-indole-3-carboxamide] is 1 to 10 µM.
As for `Cc1cc(C)c(CNC(=O)c2ccc(C(C)Oc3ccccc3)cc2C)c(=O)[nH]1` (centres unmarked) [compound 5, N-((4,6-dimethyl-2-oxo-1,2-dihydropyridin-3-yl)methyl)-2-methyl-4-(1-phenoxyethyl)benzamide], the IC50 in assay [2] was 0.1 to 1 µM; in assay [1] (setting [5]), 10 to 50 µM; in assay [3] it was 0.1 to 1 µM.
With `Cc1cc(=O)c(CNC(=O)c2ccc(C(C)Oc3ccccc3)cc2C)c(C)[nH]1` (centres unmarked) [compound 6, N-((2,6-dimethyl-4-oxo-1,4-dihydropyridin-3-yl)methyl)-2-methyl-4-(1-phenoxyethyl)benzamide], the values for the IC50 in assay [2], in assay [1] (setting [5]) and in assay [3] were 10 to 50 µM, greater than 25 µM and greater than 50 µM, respectively.
Taken in the same sequence, the figures for `Cc1cc(C)c(CNC(=O)c2cc(Cl)c(C(C)Oc3ccccc3)cc2C)c(=O)[nH]1` (centres unmarked) [compound 12, 5-chloro-N-((4,6-dimethyl-2-oxo-1,2-dihydropyridin-3-yl)methyl)-2-methyl-4-(1-phenoxyethyl)benzamide] were less than 0.1 µM, greater than 25 µM and 0.1 to 1 µM.
Regarding `Cc1cc(=O)c(CNC(=O)c2cc(Cl)c(Oc3cccc(-c4ccnnc4)c3C#N)cc2C)c(C)[nH]1` [compound 16, 5-chloro-4-(2-cyano-3-(pyridazin-4-yl)phenoxy)-N-((2,6-dimethyl-4-oxo-1,4-dihydropyridin-3-yl)methyl)-2-methylbenzamide], in assay [1] (setting [5]), the IC50 was greater than 25 µM.
As for `CCC(C)n1cc(C)c2c(C(=O)NCc3c(C)[nH]c(C)cc3=O)cc(-c3ccc(N4CCNCC4)nc3)cc21` (centres unmarked) [compound 25, 1-(sec-butyl)-N-((2,6-dimethyl-4-oxo-1,4-dihydropyridin-3-yl)methyl)-3-methyl-6-(6-(piperazin-1-yl)pyridin-3-yl)-1H-indole-4-carboxamide], the IC50 in assay [2] was less than 0.1 µM; in assay [1] (setting [5]), 10 to 50 µM; in assay [3], less than 0.1 µM.
Regarding `CCN(c1cc(-c2ccc(OCCOC)cc2)cc(C(=O)NC2CC(C)(C)NC(C)(C)C2)c1C)[C@H]1CC[C@H](N(C)C)CC1` [compound 33, 5-(((trans)-4-(dimethylamino)cyclohexyl)(ethyl)amino)-4′-(2-methoxyethoxy)-4-methyl-N-(2,2,6,6-tetramethylpiperidin-4-yl)-[1,1′-biphenyl]-3-carboxamide], the values for the IC50 in assay [2], in assay [1] (setting [5]) and in assay [3] were 10 to 50 µM, greater than 25 µM and 10 to 50 µM, respectively.
